Measurements taken from paper PMC4744546 (Pharmaceutical research, 2015).
Like-named read-outs stand apart in the source and are kept apart here. Values belong to the molecule of their own block, whether it stands above or below them.

Assays:
colon cancer cell lines = conditions: ref [18]; cited from earlier work
[1] = assay type: in vivo, FVB wild-type mice
[2] = Pharmacokinetic study of oral resveratrol with or without curcumin in Bcrp1; assay type: in vivo, Bcrp1 (−/−) mice (FVB background); conditions: for Cmax / Tmax / half-life: FVB, mouse, whole blood, po, 20 mg/kg, oral resveratrol 20mg/kg; for Cmax: blood
[3] = humans; ref [16]; cited from earlier work
[4] = Characterization of resveratrol metabolites in pooled human liver S9 fraction; assay type: in vitro ADME
BCRP [5] = conditions: oral sulfasalazine, curcumin pretreatment vs none, ref [37]; cited from earlier work
[6] = system: human MRP2-overexpressing MDCK II-UGT1A1 cells; test: Effect of curcumin on fmet of resveratrol conjugates in MDCK II cells; assay type: cell-based; conditions: 4 h
human MRP2 = human MRP2 (Homo sapiens, UniProt Q92887); test: Effect of curcumin on MRP2-mediated efflux; assay type: cell-based; conditions: MRP2-overexpressing MDCK II-UGT1A1 cells
Sequence of human MRP2 (Q92887 whole entry): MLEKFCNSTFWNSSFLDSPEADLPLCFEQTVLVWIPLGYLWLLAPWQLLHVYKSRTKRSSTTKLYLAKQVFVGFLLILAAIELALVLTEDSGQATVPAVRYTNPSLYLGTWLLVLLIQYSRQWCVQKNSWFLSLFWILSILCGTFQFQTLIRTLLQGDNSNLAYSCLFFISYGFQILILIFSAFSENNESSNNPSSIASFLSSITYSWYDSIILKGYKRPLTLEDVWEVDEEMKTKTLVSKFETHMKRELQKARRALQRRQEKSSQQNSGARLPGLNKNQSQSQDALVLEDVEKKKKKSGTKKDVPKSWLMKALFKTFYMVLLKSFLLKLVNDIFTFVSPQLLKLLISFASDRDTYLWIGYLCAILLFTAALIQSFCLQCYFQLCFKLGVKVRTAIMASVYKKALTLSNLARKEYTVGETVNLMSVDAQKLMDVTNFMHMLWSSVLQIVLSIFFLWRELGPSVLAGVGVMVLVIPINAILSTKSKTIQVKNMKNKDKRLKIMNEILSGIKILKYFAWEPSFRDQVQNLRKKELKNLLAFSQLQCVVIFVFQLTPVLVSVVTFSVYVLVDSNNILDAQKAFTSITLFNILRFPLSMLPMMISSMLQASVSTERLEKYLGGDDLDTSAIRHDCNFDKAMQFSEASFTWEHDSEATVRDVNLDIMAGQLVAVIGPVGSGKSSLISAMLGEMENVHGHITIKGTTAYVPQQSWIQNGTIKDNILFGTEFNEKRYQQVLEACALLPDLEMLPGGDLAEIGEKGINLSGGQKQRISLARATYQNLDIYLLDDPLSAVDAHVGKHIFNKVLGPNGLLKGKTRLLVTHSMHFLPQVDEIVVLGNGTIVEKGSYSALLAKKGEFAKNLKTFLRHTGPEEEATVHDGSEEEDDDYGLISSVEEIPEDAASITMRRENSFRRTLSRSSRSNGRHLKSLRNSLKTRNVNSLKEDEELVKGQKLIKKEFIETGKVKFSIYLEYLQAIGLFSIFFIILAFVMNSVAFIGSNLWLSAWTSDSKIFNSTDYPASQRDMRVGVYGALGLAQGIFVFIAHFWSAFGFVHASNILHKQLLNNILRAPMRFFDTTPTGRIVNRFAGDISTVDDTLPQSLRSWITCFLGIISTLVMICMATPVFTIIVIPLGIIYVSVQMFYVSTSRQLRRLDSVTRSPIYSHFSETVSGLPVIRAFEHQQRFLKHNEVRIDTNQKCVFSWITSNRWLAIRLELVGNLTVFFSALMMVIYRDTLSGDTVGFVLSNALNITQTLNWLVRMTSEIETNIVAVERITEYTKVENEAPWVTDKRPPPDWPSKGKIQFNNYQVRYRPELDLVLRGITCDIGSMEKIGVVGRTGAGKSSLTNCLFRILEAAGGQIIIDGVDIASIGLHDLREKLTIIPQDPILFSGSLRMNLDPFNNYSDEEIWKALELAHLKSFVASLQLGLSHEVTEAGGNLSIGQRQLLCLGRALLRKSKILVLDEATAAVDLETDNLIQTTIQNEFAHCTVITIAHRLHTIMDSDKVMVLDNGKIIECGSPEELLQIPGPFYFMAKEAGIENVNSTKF

BCRP [7] = target: T1, BCRP (Homo sapiens, UniProt Q9UNQ0); test: Effect of curcumin on BCRP-mediated efflux; assay type: cell-based; conditions: UGT1A9-overexpressing HeLa cells
T1 sequence (Q9UNQ0 1-655): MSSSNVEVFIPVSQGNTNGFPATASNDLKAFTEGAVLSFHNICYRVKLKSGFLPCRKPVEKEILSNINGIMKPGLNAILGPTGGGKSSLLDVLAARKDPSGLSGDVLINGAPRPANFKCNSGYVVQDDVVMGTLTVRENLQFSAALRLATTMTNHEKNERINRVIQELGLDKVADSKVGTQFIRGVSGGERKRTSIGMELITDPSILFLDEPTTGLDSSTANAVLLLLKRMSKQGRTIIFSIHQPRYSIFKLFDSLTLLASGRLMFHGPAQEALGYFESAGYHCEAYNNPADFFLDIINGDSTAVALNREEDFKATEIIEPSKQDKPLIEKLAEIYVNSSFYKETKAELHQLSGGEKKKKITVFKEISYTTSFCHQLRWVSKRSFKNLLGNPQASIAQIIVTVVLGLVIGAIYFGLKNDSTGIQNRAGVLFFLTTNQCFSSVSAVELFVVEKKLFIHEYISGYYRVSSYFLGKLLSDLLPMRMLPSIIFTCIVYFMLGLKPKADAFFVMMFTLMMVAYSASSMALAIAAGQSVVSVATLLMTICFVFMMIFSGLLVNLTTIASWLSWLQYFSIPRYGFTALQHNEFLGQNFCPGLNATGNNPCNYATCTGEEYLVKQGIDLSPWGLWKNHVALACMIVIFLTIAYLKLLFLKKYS

[8] = FVB, mouse, whole blood, po, 20 mg/kg
[9] = WT mice with curcumin vs without, resveratrol 20mg/kg oral
[10] = curcumin 50nM, resveratrol […], 4 h, p<0.01
[11] = curcumin 50nM, resveratrol […], 4 h, p<0.05

SMILES: O=C(O)[C@H]1O[C@@H](Oc2cc(O)cc(/C=C/c3ccc(O)cc3)c2)[C@H](O)[C@@H](O)[C@@H]1O [R-3-G, resveratrol-3-O-glucuronide]
IC50 of cell growth inhibition compared to parent compound (colon cancer cell lines): comparable

SMILES: O=C(O)[C@H]1O[C@@H](Oc2ccc(/C=C/c3cc(O)cc(O)c3)cc2)[C@H](O)[C@@H](O)[C@@H]1O [RES-4′-O-G, resveratrol-4′-O-glucuronide]
amount of metabolite generated relative to the 3-O conjugate [4]: about one fifth
IC50 of cell growth inhibition compared to parent compound (colon cancer cell lines): comparable
peak plasma levels relative to that of resveratrol [3]: 3- to 8 fold

SMILES: O=C(O)c1cc(/N=N/c2ccc(S(=O)(=O)Nc3ccccn3)cc2)ccc1O [SASP, sulfasalazine]
plasma level in mice pretreated with curcumin (BCRP [5]): two folds higher

SMILES: COc1cc(/C=C/C(=O)CC(=O)/C=C/c2ccc(O)c(OC)c2)ccc1O [curcumin, diferuoyl methane]
decrease in fmet of RES-4′-O-G ([6]; curcumin 200nM, p<0.05): ~20%
reduction in fmet of RES-3-O-G ([6]; curcumin 200nM, p>0.05): ~12%
decrease in fmet of RES-4′-O-G ([6]; curcumin 500nM, p<0.01): approximately 24%
reduction in fmet of RES-3-O-G ([6]; curcumin 500nM, p<0.05): ~14%
decrease in fmet of RES-4′-O-G ([6]; curcumin 1000nM, p<0.01): about 33%
reduction in fmet of RES-3-O-G ([6]; curcumin 1000nM, p<0.05): approximately 24%
change in fmet values for all metabolites ([6]; lower concentrations of curcumin (100nM, 50nM)): no significant change
reduction of CL of RES-3-O-G (human MRP2; curcumin 50nM, resveratrol […], 4 h, p<0.001): 46%
reduction of CL of RES-4′-O-G (human MRP2; [10]): 50%
reduction of CL of RES-3-O-S (human MRP2; [11]): 53%
reduction of CL of RES-4′-O-S (human MRP2; [11]): 54%
inhibitory effect on CL at higher concentration (human MRP2; curcumin 100nM vs 50nM): no greater concentration-dependent inhibitory effect
decrease of CL of RES-3-O-G (BCRP [7]; [10]): 28%
decrease of CL of RES-3-O-S (BCRP [7]; [11]): 35%
inhibitory effect on CL at higher concentration (BCRP [7]; curcumin 100nM vs 50nM): no greater extent of inhibitory effect
inhibitory effect on CL of RES-4′-G (BCRP [7]; curcumin 100nM, 50nM, resveratrol […], 4 h): did not show any significant inhibitory effect

The next lines start with results.

Cmax [1, 8]: 1320 ± 710 nM
Tmax ([1]; FVB, mouse, whole blood, po, 20 mg/kg, Tmax, WT with curcumin, oral resveratrol 20mg/kg): 0.31 ± 0.12 h
half-life ([1]; FVB, mouse, whole blood, po, 20 mg/kg, t1/2, WT control, oral resveratrol 20mg/kg without curcumin): 3.77 ± 1.74 h
half-life ([1]; FVB, mouse, whole blood, po, 20 mg/kg, t1/2, WT with curcumin, oral resveratrol 20mg/kg): 9.32 ± 5.64 h
Cmax ([2]; Bcrp1 (−/−) with curcumin): 1800 ± 170 nM
Cmax ([2]; Bcrp1 (−/−) without curcumin): 2400 ± 980 nM
Tmax ([2]; Bcrp1 (−/−) with curcumin): 0.25 h
Tmax ([2]; Bcrp1 (−/−) without curcumin): 0.25 h
half-life ([2]; t1/2, Bcrp1 (−/−) with curcumin): 5.82 ± 2.55 h
half-life ([2]; t1/2, Bcrp1 (−/−) without curcumin): 4.41 ± 0.44 h
SMILES: O=S(=O)(O)Oc1cc(O)cc(C=Cc2ccc(O)cc2)c1 [R-3-S, resveratrol-3-O-sulfate]
peak plasma levels relative to that of resveratrol [3]: 3- to 8 fold

Cmax [1, 8]: 600 ± 260 nM
increase of AUC with curcumin [1, 9]: 2 fold
increase of maximum blood concentration (Cmax) with curcumin [1, 9]: ~100%
Cmax ([2]; Bcrp1 (−/−) with curcumin): 390 ± 170 nM
Cmax ([2]; Bcrp1 (−/−) without curcumin): 790 ± 440 nM
Tmax ([2]; Bcrp1 (−/−) without curcumin): 0.31 ± 0.12 h
change in AUC with curcumin ([2]; curcumin-treated vs curcumin-untreated Bcrp1 (−/−) mice): decreased moderately
SMILES: Oc1ccc(/C=C/c2cc(O)cc(O)c2)cc1 [Resveratrol, trans-3,5,4′-trihydroxystilbene]
